± gives the expanded uncertainty stated by the source.
Assay: xn = mol fraction of the nth substance listed
Conditions: 100 kPa, Liquid; for viscosity: Falling or rolling sphere viscometry; for mass density: Vibrating tube method

CCCCCCCO [heptan-1-ol] + CCCCCCCCCCCC
Conditions | mass density [kg/m3] | viscosity [mPa·s]
293.15 K, x2 = 0.0998 | 810.76 ± 1.6 | 5.346 ± 0.11
293.15 K, x2 = 0.2005 | 800.65 ± 1.6 | 4.224 ± 0.09
293.15 K, x2 = 0.302 | 791.28 ± 1.6 | 3.358 ± 0.071
293.15 K, x2 = 0.3991 | 783.4 ± 1.6 | 2.778 ± 0.059
293.15 K, x2 = 0.4989 | 776.02 ± 1.6 | 2.363 ± 0.05
293.15 K, x2 = 0.5994 | 769.4 ± 1.6 | 2.052 ± 0.044
293.15 K, x2 = 0.6975 | 763.54 ± 1.5 | 1.835 ± 0.039
293.15 K, x2 = 0.7959 | 758.2 ± 1.5 | 1.677 ± 0.036
293.15 K, x2 = 0.8984 | 753.19 ± 1.5 | 1.538 ± 0.033
298.15 K, x2 = 0.0998 | 807.24 ± 1.6 | 4.555 ± 0.097
298.15 K, x2 = 0.2005 | 797.07 ± 1.6 | 3.626 ± 0.077
298.15 K, x2 = 0.302 | 787.66 ± 1.6 | 2.917 ± 0.062
298.15 K, x2 = 0.3991 | 779.77 ± 1.6 | 2.444 ± 0.052
298.15 K, x2 = 0.4989 | 772.37 ± 1.6 | 2.098 ± 0.045
298.15 K, x2 = 0.5994 | 765.74 ± 1.5 | 1.837 ± 0.039
298.15 K, x2 = 0.6975 | 759.88 ± 1.5 | 1.653 ± 0.035
298.15 K, x2 = 0.7959 | 754.54 ± 1.5 | 1.516 ± 0.033
298.15 K, x2 = 0.8984 | 749.53 ± 1.5 | 1.397 ± 0.03
303.15 K, x2 = 0.0998 | 803.68 ± 1.6 | 3.91 ± 0.083
303.15 K, x2 = 0.2005 | 793.46 ± 1.6 | 3.144 ± 0.067
303.15 K, x2 = 0.302 | 784.02 ± 1.6 | 2.559 ± 0.054
303.15 K, x2 = 0.3991 | 776.11 ± 1.6 | 2.168 ± 0.046
303.15 K, x2 = 0.4989 | 768.69 ± 1.5 | 1.878 ± 0.04
303.15 K, x2 = 0.5994 | 762.06 ± 1.5 | 1.655 ± 0.035
303.15 K, x2 = 0.6975 | 756.19 ± 1.5 | 1.498 ± 0.032
303.15 K, x2 = 0.7959 | 750.85 ± 1.5 | 1.38 ± 0.03
303.15 K, x2 = 0.8984 | 745.85 ± 1.5 | 1.276 ± 0.027
308.15 K, x2 = 0.0998 | 800.09 ± 1.6 | 3.381 ± 0.072
308.15 K, x2 = 0.2005 | 789.82 ± 1.6 | 2.745 ± 0.058
308.15 K, x2 = 0.302 | 780.35 ± 1.6 | 2.26 ± 0.048
308.15 K, x2 = 0.3991 | 772.42 ± 1.6 | 1.935 ± 0.041
308.15 K, x2 = 0.4989 | 765 ± 1.5 | 1.69 ± 0.036
308.15 K, x2 = 0.5994 | 758.35 ± 1.5 | 1.5 ± 0.032
308.15 K, x2 = 0.6975 | 752.48 ± 1.5 | 1.364 ± 0.029
308.15 K, x2 = 0.7959 | 747.14 ± 1.5 | 1.262 ± 0.027
308.15 K, x2 = 0.8984 | 742.15 ± 1.5 | 1.172 ± 0.025
313.15 K, x2 = 0.0998 | 796.48 ± 1.6 | 2.94 ± 0.062
313.15 K, x2 = 0.2005 | 786.16 ± 1.6 | 2.412 ± 0.051
313.15 K, x2 = 0.302 | 776.66 ± 1.6 | 2.009 ± 0.043
313.15 K, x2 = 0.3991 | 768.72 ± 1.5 | 1.736 ± 0.037
313.15 K, x2 = 0.4989 | 761.28 ± 1.5 | 1.528 ± 0.033
313.15 K, x2 = 0.5994 | 754.63 ± 1.5 | 1.365 ± 0.029
313.15 K, x2 = 0.6975 | 748.76 ± 1.5 | 1.247 ± 0.027
313.15 K, x2 = 0.7959 | 743.42 ± 1.5 | 1.158 ± 0.025
313.15 K, x2 = 0.8984 | 738.43 ± 1.5 | 1.08 ± 0.023
318.15 K, x2 = 0.0998 | 792.81 ± 1.6 | 2.573 ± 0.055
318.15 K, x2 = 0.2005 | 782.46 ± 1.6 | 2.134 ± 0.045
318.15 K, x2 = 0.302 | 772.94 ± 1.6 | 1.795 ± 0.038
318.15 K, x2 = 0.3991 | 764.98 ± 1.5 | 1.566 ± 0.033
318.15 K, x2 = 0.4989 | 757.54 ± 1.5 | 1.388 ± 0.03
318.15 K, x2 = 0.5994 | 750.88 ± 1.5 | 1.247 ± 0.027
318.15 K, x2 = 0.6975 | 745.01 ± 1.5 | 1.145 ± 0.025
318.15 K, x2 = 0.7959 | 739.67 ± 1.5 | 1.066 ± 0.023
318.15 K, x2 = 0.8984 | 734.71 ± 1.5 | 0.999 ± 0.022
323.15 K, x2 = 0.0998 | 789.12 ± 1.6 | 2.266 ± 0.048
323.15 K, x2 = 0.2005 | 778.74 ± 1.6 | 1.896 ± 0.04
323.15 K, x2 = 0.302 | 769.19 ± 1.5 | 1.612 ± 0.034
323.15 K, x2 = 0.3991 | 761.22 ± 1.5 | 1.417 ± 0.03
323.15 K, x2 = 0.4989 | 753.77 ± 1.5 | 1.265 ± 0.027
323.15 K, x2 = 0.5994 | 747.11 ± 1.5 | 1.143 ± 0.024
323.15 K, x2 = 0.6975 | 741.23 ± 1.5 | 1.054 ± 0.023
323.15 K, x2 = 0.7959 | 735.9 ± 1.5 | 0.986 ± 0.021
323.15 K, x2 = 0.8984 | 730.96 ± 1.5 | 0.928 ± 0.02
328.15 K, x2 = 0.0998 | 785.39 ± 1.6 | 2.006 ± 0.043
328.15 K, x2 = 0.2005 | 774.97 ± 1.6 | 1.694 ± 0.036
328.15 K, x2 = 0.302 | 765.4 ± 1.5 | 1.454 ± 0.031
328.15 K, x2 = 0.3991 | 757.43 ± 1.5 | 1.288 ± 0.027
328.15 K, x2 = 0.4989 | 749.97 ± 1.5 | 1.158 ± 0.025
328.15 K, x2 = 0.5994 | 743.31 ± 1.5 | 1.051 ± 0.022
328.15 K, x2 = 0.6975 | 737.44 ± 1.5 | 0.974 ± 0.021
328.15 K, x2 = 0.7959 | 732.12 ± 1.5 | 0.915 ± 0.02
328.15 K, x2 = 0.8984 | 727.21 ± 1.5 | 0.864 ± 0.019
333.15 K, x2 = 0.0998 | 781.62 ± 1.6 | 1.785 ± 0.038
333.15 K, x2 = 0.2005 | 771.18 ± 1.6 | 1.522 ± 0.032
333.15 K, x2 = 0.302 | 761.59 ± 1.5 | 1.317 ± 0.028
333.15 K, x2 = 0.3991 | 753.6 ± 1.5 | 1.175 ± 0.025
333.15 K, x2 = 0.4989 | 746.14 ± 1.5 | 1.063 ± 0.023
333.15 K, x2 = 0.5994 | 739.49 ± 1.5 | 0.97 ± 0.021
333.15 K, x2 = 0.6975 | 733.61 ± 1.5 | 0.902 ± 0.019
333.15 K, x2 = 0.7959 | 728.31 ± 1.5 | 0.851 ± 0.018
333.15 K, x2 = 0.8984 | 723.43 ± 1.5 | 0.807 ± 0.017
